Assay results as given in patent US20020142327A1, “Expression analysis of smarc nucleic acids and polypeptides useful in the diagnosis and treatment of prostate cancer” (priority 2000, published 2002).

Key:
Type in all cases: cell-based, Human
LNCaP cells = test: Cell growth assay (MTT) of LNCaP cells treated with DHT
Description: (§1) Human prostatic cancer cell lines LNCaP, DU-145, PC-3, and Tsu-prl were obtained from ATCC. LNCaP cancer cells were maintained in humidified atmosphere of 5% CO2 in air in RPMI 1640 medium supplemented with 10% fetal calf serum (Life Technologies, Inc, Rockville, Md.), 3 mM L-glutamine, 100 μg/ml streptomycin and 100 units/ml penicillin. Other lines were maintained in DMEM containing 3 mM L-glutamine, 100 μg/ml streptomycin, 100 units/ml penicillin, and 10% FCS in humidified atmosphere of 5% CO2. To examine the effects of steroids, cells were cultured in RPMI 1640 medium containing 5% FCS treated with dextran coated charcoal (Hyclone, Logan, Utah) for 24 hs before treatment. Cells were grown in the absence or presence of 10 nM DHT for 0, 2, 4, 6, 12, 24, 48, and 72 hs. They were collected and frozen at each time point. Two hundred μl of medium were collected from each flask for PSA assay.
To verify the effect of DHT on the growth of LNCaP cells, cells at 3,000 cells/well were plated in 96-well plates for 24 hs before treatment with DHT. After 72 hs, MTT was added to each well and incubated at 37° C. for four hs. At the end of incubation, the supernatant was removed and 100 μl DMSO was added to each well to dissolve […]. Plates were subsequently read in a plate reader at […].

PSA production = test: PSA ELISA on medium of LNCaP cells treated with DHT
Description: as §1
Quantification of PSA was performed using an ELISA. Briefly, a 96-well Nunc plate was coated with 100 μl of goat anti-PSA (1 μg/ml, Scripps laboratory, San Diego, Calif.) overnight at 4° C. The plate was washed with water three times and incubated with 100 μl of blocking buffer (PBS, 0.05% Tween 20, 1 μM EDTA, 0.25% BSA, and 0.05% NaN3) for 1 h at room temperature. The plate was washed three times with water and incubated with 1:1 mixture of mouse anti-human PSA and Eu-labeled anti-mouse IgG (10 ng/antibody each/well for 1½ hs at RT). The plate was then washed four times with water. 100 μl of Delfia Enhancement Solution (PerkinElmer Wallac Inc (Norton, Ohio) was added to the plate was read using a Victor reader according to the manufacturer's instruction.

SMARCD3 expression = test: Affymetrix GeneChip expression analysis of LNCaP cells, SMARCD3
Description: as §1
Total RNA was isolated from LNCaP cells using the Qiagen Rneasy Midi Kit following the manufacturer's recommendations. For polyA (+) selection, the Promega PolyATract kit was used according to manufacturer's procedures. Briefly, LNCaP cells were collected by centrifugation and the RNA isolated using the buffers and recommended procedures from the Qiagen kit. Following RNA extraction, all samples were frozen at −80° C. One microgram of poly A(+) RNA was used as template for synthesis of double-stranded cDNA using the GibcoBRL cDNA synthesis kit, with an oligo dT primer incorporating a T7 RNA polymerase promoter (10 minutes at 70° C. for priming, 65 minutes at 37° C. for first strand synthesis with Superscript II RT, followed by 150 min at 15.8° C. for second strand synthesis with E. coli ligase, E. coli polymerase, and RNAse H). […] The cRNA was purified by SPRI using paramagnetic beads (Bangs Laboratories), and total molar concentration was determined from the absorbance at 260. […]

[1] = system: prostate specific antigen (PSA) expression; test: Affymetrix GeneChip expression analysis of LNCaP cells, PSA; conditions: 10 nM DHT
Description: as §1
Total RNA was isolated from LNCaP cells using the Qiagen Rneasy Midi Kit following the manufacturer's recommendations. For polyA (+) selection, the Promega PolyATract kit was used according to manufacturer's procedures. […] The cRNA was purified by SPRI using paramagnetic beads (Bangs Laboratories), and total molar concentration was determined from the absorbance at 260. […]

Question: With `C[C@]12CCC(=O)C[C@@H]1CC[C@@H]1[C@@H]2CC[C@]2(C)[C@@H](O)CC[C@@H]12` [DHT] as the compound, how does the “growth effect at the chosen concentration” value (LNCaP cells; 10 nM DHT) read?
Answer: The value was “robust growth-stimulatory effect”.

Question: What about the “growth of LNCaP cells” value (LNCaP cells; dose response, 72 hs, MTT) of the same compound?
Answer: Its value is “stimulated”.

Question: What about the “time at which PSA signal was first detected” value (PSA production; DHT treatment) of the same compound?
Answer: Its value is 12 h.

Question: What about the “time of maximal PSA level” value (PSA production; DHT treatment) of the same compound?
Answer: The value was “about 48 hs”.

Question: What about the PSA production (PSA production; dose response, ELISA) of the same compound?
Answer: The PSA production was “increased in a dose-dependent manner”.

Question: And the “decrease in SMARCD3 expression levels” value (SMARCD3 expression; 24 hours post-androgen treatment)?
Answer: The value was 2 fold.

Question: And the “decrease in SMARCD3 expression levels” value (SMARCD3 expression; 48 hours post-treatment)?
Answer: The value was 4 fold.

Question: What about the “decrease in SMARCD3 expression levels” value (SMARCD3 expression; 72 hours post-treatment) of the same compound?
Answer: Its value is 6 fold.

Question: What about the “PSA expression increase relative to control” value ([1]; 12 hours) of the same compound?
Answer: Its value is 3 fold.

Question: And the “PSA expression induction relative to control” value ([1]; 72 hours)?
Answer: The value was “approximately 4 fold”.
